Laboratory results reported in ChEMBL document CHEMBL3132756, “Synthesis, structureactivity relationships and stereochemical investigations of new tricyclic pyridazinone derivatives as potential STAT3 inhibitors” (Medchemcomm, 2013).
The source made the active and inactive calls. The rule behind the calls is not given here.

target: Signal transducer and activator of transcription 3 (Homo sapiens) (UniProt P40763); experiment: Inhibition of STAT3 (unknown origin) expressed in human HCT116 cells at 2 uM by dual luciferase assay; format: cell-based; settings: HCT-116
Sequence (P40763 whole entry, the tested form may be a part): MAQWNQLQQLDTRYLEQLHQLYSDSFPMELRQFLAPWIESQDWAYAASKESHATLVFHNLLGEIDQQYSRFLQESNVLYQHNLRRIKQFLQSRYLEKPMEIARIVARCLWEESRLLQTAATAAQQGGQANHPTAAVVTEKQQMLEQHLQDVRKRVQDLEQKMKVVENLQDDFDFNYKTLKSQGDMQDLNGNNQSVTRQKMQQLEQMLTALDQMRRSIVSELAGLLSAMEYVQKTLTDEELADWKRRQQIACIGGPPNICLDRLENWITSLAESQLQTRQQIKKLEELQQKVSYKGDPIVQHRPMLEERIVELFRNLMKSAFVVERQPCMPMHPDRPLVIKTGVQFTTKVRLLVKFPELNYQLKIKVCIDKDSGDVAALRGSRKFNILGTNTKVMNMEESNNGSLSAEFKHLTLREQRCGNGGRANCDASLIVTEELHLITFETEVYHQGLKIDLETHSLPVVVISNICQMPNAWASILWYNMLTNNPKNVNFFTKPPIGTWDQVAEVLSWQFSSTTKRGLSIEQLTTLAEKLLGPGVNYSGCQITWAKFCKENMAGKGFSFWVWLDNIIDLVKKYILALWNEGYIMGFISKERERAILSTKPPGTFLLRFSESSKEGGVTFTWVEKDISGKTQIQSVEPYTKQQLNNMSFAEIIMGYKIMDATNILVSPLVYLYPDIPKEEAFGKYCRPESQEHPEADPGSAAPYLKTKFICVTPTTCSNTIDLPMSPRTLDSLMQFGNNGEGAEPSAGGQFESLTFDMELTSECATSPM

Row | Structure (SMILES) | inhibition [%]
1 | O=C1CC2CCc3ccccc3C2=NN1CCCc1nn[nH]n1 (stereo unspecified) | -9
2 | CCNC(=O)CCCN1N=C2c3ccccc3CCC2CC1=O (stereo unspecified) | 16
3 | CCOC(=O)CCCn1nc2c(cc1=O)CCc1ccccc1-2 | 1
4 | C[C@H]1COC2=C1C(=O)C(=O)c1c2ccc2c1CCCC2(C)C | 25
5 | O=C(O)CCCN1N=C2c3ccccc3CCC2CC1=O (stereo unspecified) | 8
6 | CCOC(=O)CCCCCN1N=C2c3ccccc3CCC2CC1=O (stereo unspecified) | 25
7 | CCOC(=O)CCCCCCN1N=C2c3ccccc3CCC2CC1=O (stereo unspecified) | 22
8 | CCOC(=O)CCCCN1N=C2c3ccccc3CCC2CC1=O (stereo unspecified) | 21
9 | CCOC(=O)CCN1N=C2c3ccccc3CCC2CC1=O (stereo unspecified) | 30
10 | O=C(O)CCN1N=C2c3ccccc3CCC2CC1=O (stereo unspecified) | -2
11 | CCOC(=O)CN1N=C2c3ccccc3CCC2CC1=O (stereo unspecified) | 3
12 | O=C1CC2CCc3ccccc3C2=NN1 (stereo unspecified) | -6
13 | CCCCN1N=C2c3ccccc3CCC2CC1=O (stereo unspecified) | -9
14 | CCOC(=O)CCCN1N=C2c3ccccc3CC2CC1=O (stereo unspecified) | 28
15 | CCNCCCCN1N=C2c3ccccc3CCC2CC1=O (stereo unspecified) | 3
16 | CCOC(=O)CCCN1N=C2c3cc(OC)cc(OC)c3CCC2CC1=O (stereo unspecified) | 23
17 | CCOC(=O)CCCN1N=C2c3ccc(Cl)cc3CCC2CC1=O (stereo unspecified) | 9
18 | CCOC(=O)CCCN1N=C2c3ccccc3CCC2CC1=O (racemic) | 46
19 | CCCCCN1N=C2c3ccccc3CCC2CC1=O (stereo unspecified) | 22

target: Signal transducer and activator of transcription 3 (Homo sapiens) (UniProt P40763); experiment: Binding affinity to STAT3 SH2 domain (unknown origin) pre-incubated 15 mins before (FITC)-GpYLPQTV probe and measured after 90 mins by Alpha screen assay; settings: not given

Row | Structure (SMILES) | Activity
20 | CCOC(=O)CCCN1N=C2c3ccccc3CCC2CC1=O (racemic) | inactive

target: Signal transducer and activator of transcription 3 (Homo sapiens) (UniProt P40763); experiment: Inhibition of STAT3 (unknown origin) expressed in human HCT116 cells at 10 uM by dual luciferase assay relative to (+) enantiomer; format: cell-based; settings: HCT-116

Row | Structure (SMILES) | fold change (FC)
21 | CCOC(=O)CCCN1N=C2c3ccccc3CC[C@H]2CC1=O | 2
